The values below come from patent US12421206B2, “Aryl-n-aryl derivatives for treating a RNA virus infection” (ABIVAX, priority 2018, dated 2025).

The test system of one assay is DENV-2 strain 16681. The assay is described as follows: DENV-2 inhibition (cytopathic effect inhibition) using Viral ToxGlo assay in A549 cells. It counts as cell-based, Dengue 2 virus. As to conditions: Dengue virus, DENV2, 120 h, compounds at 10 μM, MOI 0.5, 5 days p.i., read-out: % DENV-2 Inhibition Mean (n = 3). On the procedure: Protocol for Screening Antiviral Compounds for DENV-2 Inhibition and Cytotoxicity Using Viral ToxGlo Assay
A549 cells were maintained in Dulbecco's Modified Eagle Medium (DMEM) supplemented with 10% fetal bovine serum, 100 U/ml penicillin and 100 μg/ml streptomycin. For the purposes of the screening assay they were grown to 90% confluency, trypsinized and recovered. The trypsin was neutralised with cell culture media and cells were centrifuged at 150×g for 5 minutes before discarding the supernatant and resuspending cell pellet in assay media (DMEM supplemented with 2% fetal bovine serum and 100 U/ml penicillin and 100 μg/ml streptomycin). The cells were seeded into 96-well white clear-bottomed cell culture plates at a density of 1.0×10^4 cells/well in 50 μl. For the media/background control column assay media only was added. Cell plates were placed in a humid chamber and incubated overnight at 37° C./5% CO2. After overnight incubation cells were checked for confluency and healthy appearance.
Test compounds were prepared at a final concentration of 10 μM in a maximum DMSO concentration of 1% (final assay concentration maximal 0.1% DMSO) and added to the cell plates in volumes of 10 μl. For cell control and virus control wells the test article solvent only was added. As a positive inhibition control, 7-Deaza-2′-C-methyladenosine was added at 100 μM in 3 wells. Virus (DENV-2 strain 16681) or assay media for cytotoxicity test wells and media/cell control wells was added immediately after test articles at an MOI of 0.5, 40 for 96 well plates respectively. Virus suspension was prepared by thawing DENV-2 frozen stocks and diluting to the required concentration of plaque forming units in assay media.
Cell plates were further incubated inside a humid chamber for 5 days p.i at 37° C./5% CO2. After the incubation period cells were observed under the microscope to check for characteristic cytopathic effect in virus control wells and healthy cells in the cell control wells. After plates were adjusted to room temperature 20 μl Viral ToxGlo (Promega) was added to each well of the 96-well cell plates. Plates were incubated at room temperature for 5 minutes before measuring the luminescence on a spectrophotometer (Envision, PerkinElmer).
DENV-2 inhibition was calculated as percentage of cytopathic effect inhibition relative to the virus control and cytotoxicity as percentage of cell survival relative to cell control wells.

The next assay concerns RSV A2. In words: RSV inhibition (cytopathic effect inhibition) using Viral ToxGlo assay in HEp-2 cells. In kind it is cell-based. The settings on record: human respiratory syncytial virus, RSV A2, MOI 0.5, HEp-2 cells, 72 h p.i. On the procedure: Protocol for Screening Antiviral Compounds for RSV Inhibition and Cytotoxicity Using Viral ToxGlo Assay
HEp-2 cells were maintained in Eagle's minimum essential medium (EMEM) with Earle's BSS adjusted to contain 2 mM L-glutamine, 10% fetal bovine serum, 100 U/ml penicillin and 100 μg/ml streptomycin. For the purposes of the screening assay they were grown to 90% confluency, trypsinized and recovered. The trypsin was neutralised with cell culture media and cells were centrifuged at 150×g for 5 minutes before discarding the supernatant and resuspending cell pellet in assay media (EMEM with Earle's BSS adjusted to contain 2 mM L-glutamine, 2% fetal bovine serum and 100 U/ml penicillin and 100 μg/ml streptomycin). The cells were seeded into white clear-bottomed cell culture plates at a density of 1.5×10^4 cells/well in 50 μl and 4×10^3 cells/well in 25 μl for 96 well plates and 384 well plates respectively. For the media/background control column assay media only was added. Cell plates were placed in a humid chamber and incubated overnight at 37° C./5% CO2. After overnight incubation cells were checked for confluency and healthy appearance.
Test articles were made up at 10× test concentration in a maximum DMSO concentration of 10% (final assay concentration maximal 1% DMSO) and added to the cell plates in volumes of 10 μl for 96 well plates and 5 μl for 384 well plates. For cell control and virus control wells the test article solvent only was added. Virus or assay media for cytotoxicity test wells and media/cell control wells was added immediately after test articles at an MOI of 0.5, 40 or 20 μl for 96 and 384 well plates respectively. Virus suspension was prepared by thawing RSV A2 frozen stocks and diluting to the required concentration of plaque forming units in assay media on ice.
Cell plates were further incubated inside a humid chamber for 72 h p.i at 37° C./5% CO2. After the incubation period cells were observed under the microscope to check for characteristic cytopathic effect in virus control wells and healthy cells in the cell control wells. After plates were adjusted to room temperature 20/40 μl Viral ToxGlo (Promega) was added to each well of the 384/96 well cell plates. Plates were incubated at room temperature, protected from light on a plate rocker for 20 minutes before measuring the luminescence on a spectrophotometer (Biotek Synergy HTX).
RSV inhibition was calculated as percentage of cytopathic effect inhibition relative to the virus control and cytotoxicity as percentage of cell survival relative to cell control wells. This allowed EC50 values to be calculated for each test article where a virus inhibition or cytotoxic dose response was identified.
In general terms: Cytopathic effects are the visible damage that an infection or toxin causes in cultured cells.

In general, inhibition refers to the relative decrease from the control value, in per cent. Broadly, the EC50 is the concentration at which the effect is half-maximal. Take `CC(C)CCNC(=O)c1cccc(Nc2ccc(OCc3ccccn3)cc2C2CC2)c1` [Compound 61, 3-((2-cyclopropyl-4-(pyridin-2-ylmethoxy)phenyl)amino)-N-isopentylbenzamide]: the inhibition at 10 µM in the assay with DENV-2 strain 16681 amounted to 55%. Moreover, the concentration giving a half-maximal response (EC50) in the assay on RSV A2 worked out at 54 nM.
As for `O=C(NCC1CCCC1)c1cccc(Nc2ccc(OCc3ccccn3)cc2)c1` [Compound 62, N-(cyclopentylmethyl)-3-((4-(pyridin-2-ylmethoxy)phenyl)amino)benzamide], the inhibition at 10 µM in the assay on DENV-2 strain 16681 was found to be 55%.
On the same count and under the same terms, for `O=C(NCCC(F)(F)F)c1cccc(Nc2ccc(OCc3ccccn3)cc2)c1` [Compound 65, 3-((4-(pyridin-2-ylmethoxy)phenyl)amino)-N-(3,3,3-trifluoropropyl)benzamide] the value was 77%.
For the molecule `O=C(NCCC1CCCC1)c1cccc(Nc2ccc(OCc3ccccc3)cc2C2CC2)c1` [Compound 82, N-(2-(cyclopentyl)ethyl)-3-((2-cyclopropyl-4-(phenylmethoxy)phenyl)amino)benzamide], the inhibition at 10 µM with DENV-2 strain 16681 came to 64%. Also, the concentration for a half-maximal effect (EC50) in the assay on RSV A2 amounted to 4 nM.
For `O=C(CCC1CCCCC1)Nc1cccc(Nc2ccc(OCc3ccccc3)cc2C(F)(F)F)c1` [Compound 98, N-(3-{[4-(benzyloxy)-2-(trifluoromethyl)phenyl]amino}phenyl)-3-cyclohexylpropanamide], in that order: 60% and 12 nM.
For `CC(C)c1cc(OCc2ccccc2)ccc1Nc1cccc(OCCCC2CCCCC2)c1` [Compound 119, 4-(benzyloxy)-N-[3-(3-cyclohexylpropoxy)phenyl]-2-(propan-2-yl)aniline], in that order: 104% and 107 nM.
Turning to `Cc1cc(OCc2ccc(F)cc2)ccc1Nc1ccc(F)c(NC(=O)CCC2CCCCC2)c1` [Compound 121, 3-cyclohexyl-N-[2-fluoro-5-({4-[(4-fluorophenyl)methoxy]-2-methylphenyl}amino)phenyl]propanamide], the inhibition at 10 µM in the assay on DENV-2 strain 16681 is 59%. Besides, the half-maximal effective concentration (EC50) with RSV A2 stood at 116 nM.
As to `Cc1cc(OCc2ccccc2)ccc1Nc1cccc(NC(=O)CCC2CCCCC2)c1` [Compound 132, N-(3-{[4-(benzyloxy)-2-methylphenyl]amino}phenyl)-3-cyclohexylpropanamide], the inhibition at 10 µM in the assay with DENV-2 strain 16681 came to 71%. In addition, the 50% effective concentration (EC50) in the assay with RSV A2 is 228 nM.
On to `Cc1cc(OCc2ccc(F)cc2)ccc1Nc1cccc(NC(=O)CCC2CCCCC2)c1` [Compound 140, 3-cyclohexyl-N-[3-({4-[(4-fluorophenyl)methoxy]-2-methylphenyl}amino)phenyl]propanamide], for which the inhibition at 10 µM with DENV-2 strain 16681 was determined as 74%. Moreover, the half-maximal effective concentration (EC50) with RSV A2 stood at 349 nM.
Take `O=C(CCC1CCCCC1)Nc1cccc(Nc2ccc(OCc3ccccc3)cc2F)c1` [Compound 150, N-(3-{[4-(benzyloxy)-2-fluorophenyl]amino}phenyl)-3-cyclohexylpropanamide]: in the assay with DENV-2 strain 16681, the inhibition at 10 µM came out at 78%. Moreover, in the assay with RSV A2, the EC50 came to 597 nM.
The corresponding values for `c1ccc(COc2ccc(Nc3cccc(OC4COC4)c3)c(C3CC3)c2)nc1` [Compound 151, 2-cyclopropyl-N-[3-(oxetan-3-yloxy)phenyl]-4-[(pyridin-2-yl)methoxy]aniline] are 63% and 671 nM.
Consider `Cc1cc(OCc2ncccn2)ccc1Nc1cccc(OCCCC2CCCCC2)c1` [Compound 152, N-[3-(3-cyclohexylpropoxy)phenyl]-2-methyl-4-[(pyrimidin-2-yl)methoxy]aniline], for which the EC50 in the assay on RSV A2 came to 802 nM.
Same read-out and setting: the value for `Cc1cc(OCc2ccc(OC(F)(F)F)cc2)ccc1Nc1cccc(NC(=O)CCC2CCCCC2)c1` [Compound 153, 3-cyclohexyl-N-{3-[(2-methyl-4-{[4-(trifluoromethoxy)phenyl]methoxy}phenyl)amino]phenyl}propanamide] was 809 nM.
The same measure, in the same setting: for `c1ccc(COc2ccc(Nc3ccccc3OCCCC3CCCCC3)c(C3CC3)c2)cc1` [Compound 154, 4-(benzyloxy)-N-[2-(3-cyclohexylpropoxy)phenyl]-2-cyclopropylaniline] the value was 810 nM.
On the same count and under the same terms, for `OCC(O)(CCC1CCCCC1)c1cccc(Nc2ccc(OCc3ccccc3)cc2C2CC2)c1` (stereo not shown) [Compound 155, 2-(3-{[4-(benzyloxy)-2-cyclopropylphenyl]amino}phenyl)-4-cyclohexylbutane-1,2-diol] the value was 1030 nM.
In the case of `CN(c1cccc(OCCCC2CCCCC2)c1)c1ccc(OCc2ccccn2)cc1C1CC1` [Compound 156, N-[3-(3-cyclohexylpropoxy)phenyl]-2-cyclopropyl-N-methyl-4-[(pyridin-2-yl)methoxy]aniline], the inhibition at 10 µM in the assay on DENV-2 strain 16681 was determined as 82%. Further, in the assay on RSV A2, the 50% effective concentration (EC50) was found to be 1060 nM.
Regarding `c1ccc(COc2ccc(Nc3cccc(OCCCC4CCCCC4)c3)c(C3CCOCC3)c2)cc1` [Compound 164, 4-(benzyloxy)-N-[3-(3-cyclohexylpropoxy)phenyl]-2-(oxan-4-yl)aniline], in the assay with RSV A2, the EC50 worked out at 1320 nM.
On the same count and under the same terms, for `C1=C(c2cc(OCc3ccccc3)ccc2Nc2cccc(OCCCC3CCCCC3)c2)CCOC1` [Compound 165, 4-(benzyloxy)-N-[3-(3-cyclohexylpropoxy)phenyl]-2-(3,6-dihydro-2H-pyran-4-yl)aniline] the value was 2360 nM; for `c1ccc(COc2ccc(Nc3cncc(OCCCC4CCCCC4)c3)c(C3CC3)c2)nc1` [Compound 166, 5-(3-cyclohexylpropoxy)-N-{2-cyclopropyl-4-[(pyridin-2-yl)methoxy]phenyl}pyridin-3-amine], 2490 nM.
On to `O=C(CCC1CCCCC1)Nc1cccc(Nc2ccc(OCc3ccc(C(F)(F)F)cc3)cc2C2CC2)c1` [Compound 169, 3-cyclohexyl-N-{3-[(2-cyclopropyl-4-{[4-(trifluoromethyl)phenyl]methoxy}phenyl)amino]phenyl}propanamide], for which the inhibition at 10 µM in the assay with DENV-2 strain 16681 amounted to 59%.
As for `Cc1cc(OCc2ccccc2)ccc1Nc1cccc(OCC2CCCC2)c1` [Compound 175, 4-(benzyloxy)-N-[3-(cyclopentylmethoxy)phenyl]-2-methylaniline], in the assay with DENV-2 strain 16681, the inhibition at 10 µM was found to be 60%.
Regarding `Cc1cc(OCc2cncnc2)ccc1Nc1cccc(OCCCC2CCCCC2)c1` [Compound 176, N-[3-(3-cyclohexylpropoxy)phenyl]-2-methyl-4-[(pyrimidin-5-yl)methoxy]aniline], in the assay with DENV-2 strain 16681, the inhibition at 10 µM worked out at 85%.
With `c1ccc(COc2ccc(Nc3cccc(-c4cnco4)c3)c(C3CC3)c2)nc1` [Compound 179, 2-cyclopropyl-N-[3-(1,3-oxazol-5-yl)phenyl]-4-[(pyridin-2-yl)methoxy]aniline], the 50% effective concentration (EC50) with RSV A2 is 721 nM.
Turning to `Cc1cc(OCc2ccccc2)ccc1Nc1cccc(OCC(=O)O)c1` [Compound 192, 2-(3-{[4-(benzyloxy)-2-methylphenyl]amino}phenoxy)acetic acid], the inhibition at 10 µM in the assay on DENV-2 strain 16681 was found to be 66%.
